Assay results reported in patent US10307404B1, “Ocular formulations for drug-delivery to the posterior segment of the eye” (priority 2013, dated 2019).
Where two headings read alike, the source gives them in different places.

How the values were obtained:
Solubility = format: physicochemical
[1] = PK of topical ocular sodium phosphate-based Gel Drop, concentrations 1 hour after last dose; format: in vivo, Dutch-belted rabbits; details: Dutch-belted, rabbit
Excerpt: The Gel Drop of Compound-I was applied to eyes of Dutch-belted rabbits.

For `Cl.NC(=O)c1c(OCc2c(F)cc(Br)cc2F)nsc1NC(=O)NCCCCN1CCCC1` [Compound-I, 3-[(4-bromo-2,6-difluorophenyl)methoxy]-5-[[[[4-(1-pyrrolidinyl)butyl]amino]carbonyl]amino]-4-isothiazolecarboxamide hydrochloride], the “solubility provided (clinical dose strengths)” value (Solubility; HP-β-CD (KLEPTOSE HPB) at equal to or more than 1:6 molar ratio) was 0.1-1.0%, the “solubility provided (clinical dose strengths)” value (Solubility; SBE-β-CD (CAPTISOL) at equal to or more than 1:2 ratio) was 0.1-1.0% and the Solubility (Solubility; pH 7.5 (0.05M NaH2PO4)) was 1000 µg/mL. It also gave a Solubility (Solubility; pH 9.0 (0.05 m Na2HPO4)) of 700 µg/mL, a concentration at 1 h ([1]; AH (aqueous humor), 2 mg/ml, pH 6, 2 mg/ml pH 6 BAK 0.005% Gly 2% Osmo 232, 3x/day 5 days, read-out: Mean [AH]) of 30 nM and a concentration at 1 h ([1]; AH (aqueous humor), 2 mg/ml, pH 6, 2 mg/ml pH 6.0 Phos 0.02% BAK 0.005% Gly 2% PS80 1% Tylox 0.2%, 3x/day 5 days, read-out: Mean [AH]) of 13.8 nM. It also gave a concentration at 1 h ([1]; AH (aqueous humor), 2 mg/ml, pH 6, 2 mg/ml pH 6 Phos 0.05% BAK 0.005% Gly 2% PS80 1% Osmo 261, 3x/day 5 days, read-out: Mean [AH]) of 25.5 nM, a concentration at 1 h ([1]; AH (aqueous humor), 2 mg/ml, pH 6, 2 mg/ml pH 6.0 Phos 0.05% BAK 0.005% Gly 2%, 3x/day 5 days, read-out: Mean [AH]) of 32.2 nM and a concentration at 1 h ([1]; AH (aqueous humor), 2 mg/ml, pH 6, 2 mg/ml pH 6.0 Phos 0.2% BAK 0.005% Gly 2%, 3x/day 5 days, read-out: Mean [AH]) of 14.8 nM. It also gave a concentration at 1 h ([1]; AH (aqueous humor), 4 mg/ml, pH 6, 4 mg/ml pH 6.0 Phos 0.2% BAK 0.005% Gly 2%, 3x/day 5 days, read-out: Mean [AH]) of 25 nM, a concentration at 1 h ([1]; AH (aqueous humor), 4 mg/ml, pH 6, 4 mg/ml pH 6.0 Phos 2% BAK 0.005% Gly 2% PS80 1% Tylox 0.2%, 3x/day 5 days, read-out: Mean [AH]) of 21.1 nM and a concentration at 1 h ([1]; AH (aqueous humor), 6 mg/ml, pH 5.9, 6 mg/ml pH 5.9 Phos 0.05% BAK 0.005% Gly 2% PS80 1% Tylox 0.1% Polox 0.2% Osmo 270, 3x/day 4 days, read-out: Mean [AH]) of 222 nM. For the same molecule, the concentration at 1 h ([1]; AH (aqueous humor), 6 mg/ml, pH 5.9, 6 mg/ml pH 5.9 Phos 0.1% BAK 0.005% Gly 2% Polox 0.2% Osmo 257, 3x/day 4 days, read-out: Mean [AH]) was 55.4 nM, the concentration at 1 h ([1]; aqueous humor (AH), 1 mg/ml, pH 6, 1 mg/ml pH 6 BAK 0.005% Gly 2% Osmo 234, 3x/day 5 days, read-out: Mean [AH]) was 17.1 nM and the concentration at 1 h ([1]; aqueous humor (AH), 1 mg/ml, pH 6, 1 mg/ml pH 6.0 Phos 0.05% BAK 0.005% Gly 2% PS80 0.01% Tylox 0.2%, 3x/day 5 days, read-out: Mean [AH]) was 9.09 nM. It also gave a concentration at 1 h ([1]; aqueous humor (AH), 1 mg/ml, pH 6, 1 mg/ml pH 6 Phos 0.05% BAK 0.005% Gly 2%, 3x/day 5 days, read-out: Mean [AH]) of 16.4 nM, a concentration at 1 h ([1]; aqueous humor (AH), 1 mg/ml, pH 6, 1 mg/ml pH 6.0 Phos 0.2% BAK 0.005% Gly 2% PS80 1% Tylox 0.2%, 3x/day 5 days, read-out: Mean [AH]) of 6.27 nM and a concentration at 1 h ([1]; aqueous humor (AH), 1 mg/ml, pH 6, 1 mg/ml pH 6.0 Phos 0.2% BAK 0.005% Gly 2%, 3x/day 5 days, read-out: Mean [AH]) of 20.6 nM. For the same molecule, the concentration at 1 h ([1]; aqueous humor (AH), 2 mg/ml, pH 6, 2 mg/ml pH 6 Phos 0.05% BAK 0.005% Gly 2% Osmo 244, 3x/day 5 days, read-out: Mean [AH]) was 27.8 nM, the concentration at 1 h ([1]; aqueous humor (AH), 2 mg/ml, pH 6, 2 mg/ml pH 6.0 Phos 0.05% BAK 0.005% Gly 2% PS80 1% Tylox 0.2%, 3x/day 5 days, read-out: Mean [AH]) was 18.2 nM and the concentration at 1 h ([1]; aqueous humor (AH), 2 mg/ml, pH 6, 2 mg/ml pH 6.0 Phos 0.1% BAK 0.005% Gly 2%, 3x/day 5 days, read-out: Mean [AH]) was 18.9 nM. For the same molecule, the concentration at 1 h ([1]; aqueous humor (AH), 2 mg/ml, pH 6, 2 mg/ml pH 6 Phos 0.2% BAK 0.005% Gly 2% Osmo 257, 3x/day 5 days, read-out: Mean [AH]) was 29.5 nM, the concentration at 1 h ([1]; aqueous humor (AH), 2 mg/ml, pH 6, 2 mg/ml pH 6 Phos 0.2% BAK 0.005% Gly 2% PS80 1% Osmo 281, 3x/day 5 days, read-out: Mean [AH]) was 19.7 nM and the concentration at 1 h ([1]; aqueous humor (AH), 2 mg/ml, pH 6.1, 2 mg/ml pH 6.1 Phos […] Osmo 34, 3x/day 4 days, read-out: Mean [AH]) was 13.7 nM. The concentration at 1 h ([1]; choroid, 1 mg/ml, pH 6, 1 mg/ml pH 6 BAK 0.005% Gly 2% Osmo 234, 3x/day 5 days, read-out: MEAN [choroid]) was 359 nM, the concentration at 1 h ([1]; choroid, 1 mg/ml, pH 6, 1 mg/ml pH 6 BAK 0.005% Gly 2% PS80 1% Tylox 0.1% Polox 0.2% Osmo 237, 3x/day 5 days, read-out: MEAN [choroid]) was 339 nM and the concentration at 1 h ([1]; choroid, 1 mg/ml, pH 6, 1 mg/ml pH 6.0 Phos 0.05% BAK 0.005% Gly 2% PS80 0.01% Tylox 0.2%, 3x/day 5 days, read-out: MEAN [choroid]) was 295 nM. The concentration at 1 h ([1]; choroid, 1 mg/ml, pH 6, 1 mg/ml pH 6 Phos 0.05% BAK 0.005% Gly 2%, 3x/day 5 days, read-out: MEAN [choroid]) was 398 nM, the concentration at 1 h ([1]; choroid, 1 mg/ml, pH 6, 1 mg/ml pH 6.0 Phos 0.2% BAK 0.005% Gly 2% PS80 1% Tylox 0.2%, 3x/day 5 days, read-out: MEAN [choroid]) was 423 nM and the concentration at 1 h ([1]; choroid, 1 mg/ml, pH 6, 1 mg/ml pH 6.0 Phos 0.2% BAK 0.005% Gly 2%, 3x/day 5 days, read-out: MEAN [choroid]) was 519 nM. It also gave a concentration at 1 h ([1]; choroid, 1 mg/ml, pH 6.1, 1 mg/ml pH 6.1 BAK 0.005% Gly 2% Osmo 230, 3x/day 5 days, read-out: MEAN [choroid]) of 537 nM, a concentration at 1 h ([1]; choroid, 2 mg/ml, pH 5.9, 2 mg/ml pH 5.9 Phos 0.05% BAK 0.005% Gly 2% Osmo 233, 3x/day 5 days, read-out: MEAN [choroid]) of 362 nM and a concentration at 1 h ([1]; choroid, 2 mg/ml, pH 6, 2 mg/ml pH 6 BAK 0.005% Gly 2% Osmo 232, 3x/day 5 days, read-out: MEAN [choroid]) of 589 nM. The concentration at 1 h ([1]; choroid, 2 mg/ml, pH 6, 2 mg/ml pH 6.0 Phos 0.02% BAK 0.005% Gly 2% PS80 1% Tylox 0.2%, 3x/day 5 days, read-out: MEAN [choroid]) was 599 nM, the concentration at 1 h ([1]; choroid, 2 mg/ml, pH 6, 2 mg/ml pH 6 Phos 0.05% BAK 0.005% Gly 2% Osmo 244, 3x/day 5 days, read-out: MEAN [choroid]) was 422 nM and the concentration at 1 h ([1]; choroid, 2 mg/ml, pH 6, 2 mg/ml pH 6 Phos 0.05% BAK 0.005% Gly 2% PS80 1% Osmo 261, 3x/day 5 days, read-out: MEAN [choroid]) was 559 nM. The concentration at 1 h ([1]; choroid, 2 mg/ml, pH 6, 2 mg/ml pH 6.0 Phos 0.05% BAK 0.005% Gly 2%, 3x/day 5 days, read-out: MEAN [choroid]) was 528 nM, the concentration at 1 h ([1]; choroid, 2 mg/ml, pH 6, 2 mg/ml pH 6.0 Phos 0.1% BAK 0.005% Gly 2%, 3x/day 5 days, read-out: MEAN [choroid]) was 525 nM and the concentration at 1 h ([1]; choroid, 2 mg/ml, pH 6, 2 mg/ml pH 6 Phos 0.2% BAK 0.005% Gly 2% PS80 1% Osmo 281, 3x/day 5 days, read-out: MEAN [choroid]) was 357 nM. The concentration at 1 h ([1]; choroid, 2 mg/ml, pH 6, 2 mg/ml pH 6.0 Phos 0.2% BAK 0.005% Gly 2%, 3x/day 5 days, read-out: MEAN [choroid]) was 532 nM.
